The values below come from patent US11414416B1, “Compounds and uses thereof” (Foghorn Therapeutics Inc., priority 2019, dated 2022).

Sequence of Nanoluciferase-BRD9 fusion protein (Q9H8M2 whole entry, the tested form may be a part): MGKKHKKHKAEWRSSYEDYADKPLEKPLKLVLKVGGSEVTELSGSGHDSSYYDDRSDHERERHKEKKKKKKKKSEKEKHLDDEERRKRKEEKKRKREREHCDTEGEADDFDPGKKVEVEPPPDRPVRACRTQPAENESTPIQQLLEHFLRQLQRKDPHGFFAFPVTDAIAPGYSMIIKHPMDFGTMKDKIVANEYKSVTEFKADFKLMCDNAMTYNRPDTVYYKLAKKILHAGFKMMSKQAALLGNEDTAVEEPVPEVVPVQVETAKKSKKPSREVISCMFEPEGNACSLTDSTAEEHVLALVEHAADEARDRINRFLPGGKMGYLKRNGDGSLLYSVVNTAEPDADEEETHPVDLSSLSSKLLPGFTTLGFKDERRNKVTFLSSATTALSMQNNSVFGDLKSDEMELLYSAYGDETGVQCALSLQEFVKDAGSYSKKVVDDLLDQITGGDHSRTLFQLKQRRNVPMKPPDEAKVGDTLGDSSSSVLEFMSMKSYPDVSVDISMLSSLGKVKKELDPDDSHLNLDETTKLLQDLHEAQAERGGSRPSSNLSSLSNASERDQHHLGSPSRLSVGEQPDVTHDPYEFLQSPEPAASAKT

The target in the experiment is Nanoluciferase-BRD9 fusion protein (Homo sapiens (Human), UniProt Q9H8M2). Nature of the experiment: SYO1 BRD9 NanoLuc degradation assay. The class given is cell-based. The note with it: Table 5B; SYO-1 cells expressing 3×FLAG-NLuc-BRD9, 6 hours; read-out: SYO1 BRD9-NanoLuc degradation IC50. The gist of the method:
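Degradation was read as loss of nanoluciferase signal (Nano-Glo) after 6 h compound exposure in a stable SYO-1 line carrying 3×FLAG-NLuc-BRD9 (8000 cells/well). Normalised between DMSO (high) and a 1 μM known BRD9 degrader (low).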
Take `COc1cc(-c2cc(C(F)(F)F)c(=O)n(C)c2)cc(OC)c1CN1CCC(CCN2CCN(c3ccc4c(c3)C(=O)N(C3CCC(=O)NC3=O)C4=O)CC2)CC1` (centres unmarked) [Compound D328]: the DC50 is less than 10 nM.

For `COc1cc(-c2cc(C)c(=O)n(C)c2)cc(OC)c1CN1CCC(CCN2CCN(c3ccc4c(c3)C(=O)N(C3CCC(=O)NC3=O)C4=O)CC2)CC1` (centres unmarked) [Compound D329], the DC50 is less than 10 nM.

Take `COc1cc(-c2cc(C)c(=O)n(C)c2)cc(OC)c1CN1CCN(c2ccc3c(c2)C(=O)N(C2CCC(=O)NC2=O)C3=O)CC1` (centres unmarked) [Compound D330]: the DC50 is less than 10 nM.

Regarding `COc1cc(-c2cc(C)c(=O)n(C)c2)cc(OC)c1CN1CCC2(CC1)CN(c1ccc3c(c1)C(=O)N(C1CCC(=O)NC1=O)C3=O)C2` (centres unmarked) [Compound D331], the DC50 was less than 10 nM.

On to `COc1cc(-c2cc(C)c(=O)n(C)c2)cc(OC)c1CN1CCC2(CC1)CC(Oc1ccc3c(c1)C(=O)N(C1CCC(=O)NC1=O)C3=O)C2` (centres unmarked) [Compound D332], for which the DC50 was less than 10 nM.

Regarding `COc1cc(-c2cc(C)c(=O)n(C)c2)cc(OC)c1CN1CCC(n2cc([C@H](C)Oc3ccc4c(c3)C(=O)N(C3CCC(=O)NC3=O)C4=O)nn2)CC1` (some centres unmarked) [Compound D333], the DC50 is less than 10 nM.

Regarding `COc1cc(-c2cc(C)c(=O)n(C)c2)cc(OC)c1CN1CCC(CCN2CCN(C3CCC(=O)NC3=O)C(=O)C2)CC1` (centres unmarked) [Compound D334], the DC50 was greater than 1000 nM.

Regarding `COc1cc(-c2cc(C)c(=O)n(C)c2)cc(OC)c1CN1CC(C#Cc2ccc3c(c2)C(=O)N(C2CCC(=O)NC2=O)C3=O)C1` (centres unmarked) [Compound D335], the DC50 was less than 10 nM.

For the compound `COc1cc(-c2cc(C)c(=O)n(C)c2)cc(OC)c1CN1CCC2(CCN(c3ccc4c(c3)C(=O)N(C3CCC(=O)NC3=O)C4=O)C2)C1` (centres unmarked) [Compound D336], the DC50 was less than 10 nM.

As to `COc1cc(-c2cc(C)c(=O)n(C)c2)cc(OC)c1CN1CCC2(C1)CN(c1ccc3c(c1)C(=O)N(C1CCC(=O)NC1=O)C3=O)C2` (centres unmarked) [Compound D337], the DC50 was less than 10 nM.

With `COc1cc(-c2cc(C)c(=O)n(C)c2)cc(OC)c1CN1CCC2C(C1)CN2c1ccc2c(c1)C(=O)N(C1CCC(=O)NC1=O)C2=O` (centres unmarked) [Compound D338], the DC50 is less than 10 nM.

With `COc1cc(-c2cc(C)c(=O)n(C)c2)cc(OC)c1CN1CCC2CN(c3ccc4c(c3)C(=O)N(C3CCC(=O)NC3=O)C4=O)C21` (centres unmarked) [Compound D339], the DC50 was less than 10 nM.

As to `COc1cc(-c2cn(C)c(=O)c3[nH]ccc23)cc(OC)c1CN1CCC2(CC1)CN(c1ccc3c(c1)C(=O)N(C1CCC(=O)NC1=O)C3=O)C2` (centres unmarked) [Compound D340], the DC50 was less than 10 nM.

Take `COc1cc(-c2cc(C(F)F)c(=O)n(C)c2)cc(OC)c1CN1CCC2(CC1)CN(c1ccc3c(c1)C(=O)N(C1CCC(=O)NC1=O)C3=O)C2` (centres unmarked) [Compound D341]: the DC50 was less than 10 nM.

In the case of `COc1cc(-c2cnc(=O)n(C)c2)cc(OC)c1CN1CCN(CCC2CCN(c3ccc4c(c3)C(=O)N(C3CCC(=O)NC3=O)C4=O)CC2)CC1` (centres unmarked) [Compound D342], the DC50 was greater than 1000 nM.

Turning to `COc1cc(-c2cc(C)c(=O)n(C)c2C)cc(OC)c1CN1CCN(c2ccc3c(c2)C(=O)N(C2CCC(=O)NC2=O)C3=O)CC1` (centres unmarked) [Compound D343], the DC50 is less than 10 nM.

For `COc1cc(-c2ccc(=O)n(C)c2)cc(OC)c1CN1CCN(c2ccc3c(c2)C(=O)N(C2CCC(=O)NC2=O)C3=O)CC1` (centres unmarked) [Compound D344], the DC50 is less than 10 nM.

In the case of `COc1cc(-c2cn(C)c(=O)c(C)c2C)cc(OC)c1CN1CC(CN2CCC3(CC2)CN(c2ccc4c(c2)C(=O)N(C2CCC(=O)NC2=O)C4=O)C3)C1` (centres unmarked) [Compound D345], the DC50 was less than 10 nM.

On to `COc1cc(-c2cc(C)c(=O)n(C)c2C)cc(OC)c1CN1CC(CN2CCC3(CC2)CN(c2ccc4c(c2)C(=O)N(C2CCC(=O)NC2=O)C4=O)C3)C1` (centres unmarked) [Compound D346], for which the DC50 is less than 10 nM.

Consider `COc1cc(-c2ccc(=O)n(C)c2)cc(OC)c1CN1CC(CN2CCC3(CC2)CN(c2ccc4c(c2)C(=O)N(C2CCC(=O)NC2=O)C4=O)C3)C1` (centres unmarked) [Compound D347], for which the DC50 was less than 10 nM.
